Laboratory results as given in paper PMC11111404, “Discovery of potent small-molecule inhibitors of lipoprotein(a) formation” (Nature, 2024).
Read-outs that look alike come from different tables or passages of the source.

What was measured:
[1] = target: T1, Lp(a) assembly (recombinant human 16K apo(a) and apoB) (Homo sapiens, UniProt P08519); test: In vitro Lp(a) assembly assay; type: biochemical
T1 construct: containing one KIV type 1, six KIV type 2 repeats, one each of KIV types 3–10 and one KV; expressed in transfected cells; host or cells: Conditioned medium of HEK293 (CRL-1573) stably expressing 16K apo(a), combined with conditioned medium of wild-type HepG2 (HB-8065) for endogenous apoB
Experimental: HepG2 cells (HB-8065, ATCC) were cultured in Dulbecco’s modified Eagle’s medium, supplemented with 10% fetal bovine serum, 20 mM 4-(2-hydroxyethyl)-1-piperazineethanesulfonic acid (HEPES) and 100 U ml^−1 penicillin–streptomycin. apoB-conditioned media were collected after 24 h of culture at 37 °C and 5% CO2 from confluent wild-type HepG2 cells that endogenously express and secrete apoB. Apo(a)-conditioned media were collected after 24 h of culture at 37 °C and 5% CO2 from HEK293 cells (CRL-1573, ATCC) that stably express and secrete recombinant human 16K apo(a) protein containing one KIV type 1, six KIV type 2 repeats, one each of KIV types 3–10 and one KV.
The assembly assay was conducted in 96-well polypropylene plates by combining HepG2 and apo(a)-HEK293-conditioned media in the presence of a range of compound concentrations. After a two-hour incubation period at 37 °C, the reaction was stopped by the addition of 6-aminocaproic acid. Lp(a) was detected using a sandwich enzyme-linked immunosorbent assay (ELISA), with a polyclonal goat anti-apo(a) capture antibody (Abcam ab31675) and a biotin-conjugated, polyclonal goat anti-apoB detection antibody (Abcam ab20898). In brief, ELISA plates were coated with 100 μl of the capture antibody at a 1:12,500 dilution (around 4 μg ml^−1) into HEPES-buffered saline (HBS), incubated overnight at 4 °C, washed and blocked by the addition of 200 μl of 1% casein. After removal of the blocking buffer, 20 μl of each of the assembly reactions or of a dilution series of purified human Lp(a) (Athens Research, 12-16-121601), diluted 1:5 into HBS supplemented with 0.5% casein, were added to the ELISA plate. […] Absorbance at 450 nm was measured on an Envision plate reader.
The concentration of Lp(a) formed in each test condition was determined on the basis of the standard curve constructed from the purified human Lp(a) used as a reference standard, and was normalized to high (buffer) and low (no apoB) controls. […] Data were analysed in GraphPad Prism v.9.5.1.

apo(a) KIV5–8 [2] = target: T2, apo(a) KIV5–8 (Homo sapiens, UniProt P08519); test: ITC binding to apo(a) KIV5–8
T2 construct: made in house
T2 sequence (P08519 1043-1470 limits assumed): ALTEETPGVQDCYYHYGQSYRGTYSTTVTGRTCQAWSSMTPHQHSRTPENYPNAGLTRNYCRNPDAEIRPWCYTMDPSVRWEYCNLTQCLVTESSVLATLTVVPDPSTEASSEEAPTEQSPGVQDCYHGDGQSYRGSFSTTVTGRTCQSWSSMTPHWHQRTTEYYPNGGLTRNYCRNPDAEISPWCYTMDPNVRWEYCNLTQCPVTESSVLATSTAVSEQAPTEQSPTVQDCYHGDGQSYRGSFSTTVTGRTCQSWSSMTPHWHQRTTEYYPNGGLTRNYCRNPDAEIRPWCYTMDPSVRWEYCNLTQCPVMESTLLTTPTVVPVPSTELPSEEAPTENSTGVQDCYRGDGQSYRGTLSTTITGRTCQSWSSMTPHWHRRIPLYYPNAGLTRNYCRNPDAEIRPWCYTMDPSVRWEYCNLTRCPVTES
Experimental: (§1) The nucleotide sequence encoding the human LPA gene (NP_005568.2) was inserted into a mammalian expression vector containing a cytomegalovirus promoter. Protein expression was performed by transient transfection of human embryonic kidney 293 (HEK293) cells cultured in serum-free medium. The culture medium was collected five days after transfection and human apo(a) protein was purified using L-lysine affinity chromatography. Nucleotide sequences encoding various KIV domains of human apo(a) and human and rat plasminogen were inserted into a pET21a Escherichia coli expression vector. Bacterial BL21(DE3) was used as the expression host, and the induction of protein expression was performed in 2× TY medium with 1 mM isopropyl β-D-1-thiogalactopyranoside at 37 °C for 5 h. Cells were collected and stored at –80 °C for subsequent protein purification and refolding. […] All protein concentrations were determined by A280.
Experiments were performed on a MicroCal Auto-iTC200 titration calorimeter (Malvern Panalytical), with a cell volume of 200 μl and a 40-μl microsyringe. […] The microsyringe was loaded with a solution of the respective compounds, with the concentration measured by quantitative nuclear magnetic resonance, and was inserted into the calorimetric cell prefilled with the respective recombinant proteins of known concentration in ITC buffer. […]

apo(a) KIV7–8 = target: T3, apo(a) KIV7–8 (Homo sapiens, UniProt P08519); test: Radioligand binding to apo(a) KIV7–8
T3 construct: purified recombinant apo(a) KIV7–8 protein; made in house
T3 sequence (P08519 1263-1470 limits assumed): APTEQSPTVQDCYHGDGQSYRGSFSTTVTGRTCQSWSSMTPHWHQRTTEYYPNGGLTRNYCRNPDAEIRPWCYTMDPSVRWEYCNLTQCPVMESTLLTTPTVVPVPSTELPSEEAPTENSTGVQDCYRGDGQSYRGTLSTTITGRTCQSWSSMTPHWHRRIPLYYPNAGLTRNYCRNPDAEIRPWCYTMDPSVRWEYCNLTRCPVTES
Experimental: (§2) The nucleotide sequence encoding the human LPA gene (NP_005568.2) was inserted into a mammalian expression vector containing a cytomegalovirus promoter. Protein expression was performed by transient transfection of human embryonic kidney 293 (HEK293) cells cultured in serum-free medium. The culture medium was collected five days after transfection and human apo(a) protein was purified using L-lysine affinity chromatography. Nucleotide sequences encoding various KIV domains of human apo(a) and human and rat plasminogen were inserted into a pET21a Escherichia coli expression vector. Bacterial BL21(DE3) was used as the expression host, and the induction of protein expression was performed in 2× TY medium with 1 mM isopropyl β-D-1-thiogalactopyranoside at 37 °C for 5 h. Cells were collected and stored at –80 °C for subsequent protein purification and refolding. The frozen cell pellets were lysed and inclusion bodies were purified. The protein refolding was performed using the rapid-dilution method, and the refolded proteins were further purified by size-exclusion chromatography. All protein concentrations were determined by A280.
(§3) Full-length apo(a) and various shorter constructs were prepared as described. Human and rat plasminogen, purified from plasma by affinity chromatography, were obtained from Innovative Research (IHGPG and IRPLG, respectively).
(§4) All reagents used in the binding assays were prepared in assay buffer containing 50 mM Tris-HCl, pH 7.4, and 0.1% bovine serum albumin. […]
(§5) Saturation binding studies of ^3H-LSN3441732 or ^3H-LSN3374443 were conducted by adding to each well of a white-wall, clear-bottom 96-well plate, 50 µl each of (1) dimethyl sulfoxide (DMSO) or a saturating concentration (40 μM) of an unlabelled ligand; (2) protein diluted into assay buffer; (3) resuspended wheat germ agglutinin polyvinyltoluene scintillation proximity assay beads (2 mg ml^−1); and (4) a dilution series of radioligand. Plates were incubated for one to two hours at room temperature and counted on a Wallac Trilux 1450 liquid scintillation counter. […]

apo(a) KIV8 = target: T4, apo(a) KIV8 (Homo sapiens, UniProt P08519); test: Radioligand binding to apo(a) KIV8
T4 construct: made in house
T4 sequence (P08519 1387-1465 limits assumed): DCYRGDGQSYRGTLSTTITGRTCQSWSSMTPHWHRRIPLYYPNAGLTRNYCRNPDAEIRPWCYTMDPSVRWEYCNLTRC
Experimental: as §1, with “h.” for “h. Cells were collected and stored at –80 °C for subsequent protein purification and refolding.”, “A280. […]” for “A280.”
as §5

apo(a) KIV5–8 [3] = target: T2, apo(a) KIV5–8; test: Radioligand binding to apo(a) KIV5–8; settings: Experiment 1, read-out: Kd (nM) KIV5–8 Exp 1
Experimental: as §1, with “h.” for “h. Cells were collected and stored at –80 °C for subsequent protein purification and refolding.”, “A280. […]” for “A280.”
as §5

[4] = target: T5, full-length recombinant 16K apo(a) (Homo sapiens, UniProt P08519); test: Radioligand binding to full-length recombinant 16K apo(a)
T5 construct: Full-length apo(a) and various shorter constructs were prepared as described; made in house
Experimental: as §2, §3
(§6) All reagents used in the binding assays were prepared in assay buffer containing 50 mM Tris-HCl, pH 7.4, and 0.1% bovine serum albumin. All apo(a) proteins were diluted to a final concentration of 200 pM. Human and rat plasminogen were diluted into assay buffer, and 250 ng was added to each well.
Saturation binding studies of ^3H-LSN3441732 or ^3H-LSN3374443 were conducted by adding to each well of a white-wall, clear-bottom 96-well plate, 50 µl each of (1) dimethyl sulfoxide (DMSO) or a saturating concentration (40 μM) of an unlabelled ligand; (2) protein diluted into assay buffer; (3) resuspended wheat germ agglutinin polyvinyltoluene scintillation proximity assay beads (2 mg ml^−1); and (4) a dilution series of radioligand. Plates were incubated for one to two hours at room temperature and counted on a Wallac Trilux 1450 liquid scintillation counter. Non-specific binding, defined as binding in the presence of the unlabelled ligand, was subtracted to determine specific binding. Specific binding was plotted as a function of ligand concentration, and a single-site binding equation of the form y = Bmax × x/(Kd + x) was fitted to the data, where Bmax is the maximum saturable binding and Kd is the equilibrium dissociation constant.

rat plasminogen = test: Saturation radioligand binding to rat plasminogen
Experimental: as §3, §6
as §5, with “counter. Non-specific binding, defined as binding in the presence of the unlabelled ligand, was subtracted to determine specific binding.” for “counter.”

apo(a) KIV7 [5] = target: T6, apo(a) KIV7 (Homo sapiens, UniProt P08519); test: Radioligand binding to apo(a) KIV7
T6 construct: made in house
Experimental: as §2, §3, §4, §5

Lp(a) assembly = test system: Lp(a) assembly; design: method as in PMID 11802713; settings: cited from earlier work
apo(a) KIV7 [6] = target: apo(a) KIV7; design: method as in PMID 11802713; settings: binding to lysine-binding domain of apo(a) KIV7; cited from earlier work
Lp(a) = settings: humans; cited from earlier work

T5 sequence (P08519 20-2040): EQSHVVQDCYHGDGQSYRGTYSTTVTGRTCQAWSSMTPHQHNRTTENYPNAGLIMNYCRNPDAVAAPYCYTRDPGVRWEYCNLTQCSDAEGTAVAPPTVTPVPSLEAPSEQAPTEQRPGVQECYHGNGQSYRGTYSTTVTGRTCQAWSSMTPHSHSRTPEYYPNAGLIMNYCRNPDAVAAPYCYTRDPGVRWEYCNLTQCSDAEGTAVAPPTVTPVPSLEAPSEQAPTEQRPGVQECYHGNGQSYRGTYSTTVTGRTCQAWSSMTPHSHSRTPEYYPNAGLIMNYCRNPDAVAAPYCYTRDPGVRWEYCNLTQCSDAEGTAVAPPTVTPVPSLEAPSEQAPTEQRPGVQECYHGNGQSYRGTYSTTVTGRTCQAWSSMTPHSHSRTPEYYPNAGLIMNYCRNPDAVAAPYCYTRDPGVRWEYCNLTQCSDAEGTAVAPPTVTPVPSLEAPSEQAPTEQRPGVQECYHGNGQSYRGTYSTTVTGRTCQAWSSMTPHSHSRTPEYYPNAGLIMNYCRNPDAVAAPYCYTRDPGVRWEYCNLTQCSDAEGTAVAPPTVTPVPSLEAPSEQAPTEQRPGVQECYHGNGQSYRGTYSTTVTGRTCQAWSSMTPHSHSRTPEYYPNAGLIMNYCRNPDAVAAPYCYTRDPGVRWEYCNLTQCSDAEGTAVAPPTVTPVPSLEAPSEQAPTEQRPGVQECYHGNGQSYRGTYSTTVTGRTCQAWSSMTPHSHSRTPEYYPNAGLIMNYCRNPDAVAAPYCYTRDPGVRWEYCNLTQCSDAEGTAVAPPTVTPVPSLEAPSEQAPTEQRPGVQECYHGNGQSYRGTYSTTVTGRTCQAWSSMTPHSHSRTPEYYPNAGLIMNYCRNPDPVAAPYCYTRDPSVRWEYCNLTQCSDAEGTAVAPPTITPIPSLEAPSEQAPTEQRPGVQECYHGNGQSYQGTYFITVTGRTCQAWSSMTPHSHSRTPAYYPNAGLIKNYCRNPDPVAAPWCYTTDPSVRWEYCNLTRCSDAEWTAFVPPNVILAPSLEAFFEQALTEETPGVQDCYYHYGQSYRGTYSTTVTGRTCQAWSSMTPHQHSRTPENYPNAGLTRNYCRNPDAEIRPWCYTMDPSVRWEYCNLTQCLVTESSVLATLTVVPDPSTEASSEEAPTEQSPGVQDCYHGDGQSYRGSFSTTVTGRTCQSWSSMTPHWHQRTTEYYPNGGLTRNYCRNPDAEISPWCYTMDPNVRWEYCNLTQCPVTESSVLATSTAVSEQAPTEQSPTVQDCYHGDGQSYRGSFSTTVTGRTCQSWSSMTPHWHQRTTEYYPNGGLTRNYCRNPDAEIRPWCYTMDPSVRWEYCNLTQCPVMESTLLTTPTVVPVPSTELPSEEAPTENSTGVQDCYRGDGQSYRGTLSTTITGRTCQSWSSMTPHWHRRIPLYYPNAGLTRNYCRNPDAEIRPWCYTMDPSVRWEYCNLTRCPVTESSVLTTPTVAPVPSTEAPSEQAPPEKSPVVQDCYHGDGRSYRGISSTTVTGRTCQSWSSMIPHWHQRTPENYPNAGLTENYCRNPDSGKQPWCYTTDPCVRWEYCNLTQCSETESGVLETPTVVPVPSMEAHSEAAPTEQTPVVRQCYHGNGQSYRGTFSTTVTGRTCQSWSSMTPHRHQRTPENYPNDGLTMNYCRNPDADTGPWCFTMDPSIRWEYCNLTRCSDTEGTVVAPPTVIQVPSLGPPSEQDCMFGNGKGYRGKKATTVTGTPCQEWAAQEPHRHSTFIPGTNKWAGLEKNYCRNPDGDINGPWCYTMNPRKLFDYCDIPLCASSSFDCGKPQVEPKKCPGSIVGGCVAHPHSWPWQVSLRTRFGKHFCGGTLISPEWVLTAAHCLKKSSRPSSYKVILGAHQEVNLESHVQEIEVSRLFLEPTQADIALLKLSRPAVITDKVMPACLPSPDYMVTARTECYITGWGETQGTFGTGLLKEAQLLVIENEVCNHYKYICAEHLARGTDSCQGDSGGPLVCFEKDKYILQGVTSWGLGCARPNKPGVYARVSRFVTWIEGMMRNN
T1 sequence (P08519 20-2040): as above

COc1cccc(N2CCN(c3cccc(C[C@H](C(=O)O)[C@H]4CCNC4)c3)C2=O)c1 [LSN3374443]
IC50 [1]: 36 nM | Kd (apo(a) KIV5–8 [2]): < 15 nM

O=C(Nc1cccc(C[C@H](C(=O)O)[C@H]2CCNC2)c1)Nc1cccc(C[C@H](C(=O)O)[C@H]2CCNC2)c1 [^3H-LSN3441732]
Kd (apo(a) KIV7–8; direct radioligand binding, read-out: Kd, KIV7–8): 0.21 nM | Kd (apo(a) KIV7–8; radioligand binding, Experiment 1, read-out: Kd (nM) KIV7–8 Exp 1): 0.32 nM | Kd (apo(a) KIV7–8; radioligand binding, Experiment 2, read-out: Kd (nM) KIV7–8 Exp 2): 0.1 nM | Kd (apo(a) KIV8; direct radioligand binding, read-out: Kd, single KIV8): 2 nM | Kd (apo(a) KIV8; radioligand binding, Experiment 1, read-out: Kd (nM) KIV8 Exp 1): 3 nM | Kd (apo(a) KIV5–8 [3]): 0.33 nM | Bmax, full-length apo(a) ([4]; direct radioligand binding): 4.9 fmol ng^−1 apo(a) | Kd ([4]; direct radioligand binding, mean): 0.05 nM | ligands per molecule of apo(a) ([4]; from Bmax): one | fold affinity increase versus ^3H-LSN3374443 ([4]; full-length apo(a)): 50 fold | fold higher affinity for rat plasminogen than for human plasminogen (rat plasminogen): 50 fold | Kd (apo(a) KIV7 [5]; direct radioligand binding, read-out: Kd, single KIV7): 2.8 nM | Kd (apo(a) KIV7 [5]; radioligand binding, Experiment 1, read-out: Kd (nM) KIV7 Exp 1): 3 nM | Kd (apo(a) KIV7 [5]; radioligand binding, Experiment 2, read-out: Kd (nM) KIV7 Exp 2): 2.7 nM

NC[C@H]1CC[C@H](C(=O)O)CC1 [tranexamic acid]
in vitro assembly of Lp(a) (Lp(a) assembly): inhibited | Kd (apo(a) KIV7 [6]): 63 µM | levels of Lp(a) in a small clinical study (Lp(a)): reduce the levels of Lp(a)

NCCCCCC(=O)O [ε-aminocaproic acid]
in vitro assembly of Lp(a) (Lp(a) assembly): inhibited | Kd (apo(a) KIV7 [6]): 230 µM
